Key:
[1] = Inhibition of HIV1 3B gp41-mediated cell-cell fusion between viral envelope expressing virus-infected HL2/3 cells to human MAGI-CCR5 cells after 6 hrs by luciferase reporter gene assay; type: cell-based; settings: Human immunodeficiency virus 1, MAGI-CCR5, 6 h
[2] = Binding affinity to gp41 in HIV1 by fluorescence analysis; set-up: species or system Human immunodeficiency virus 1
[3] = Cytotoxicity against human MAGI-CCR5 cells assessed as cell viability by MTS assay; type: cell-based

SMILES | IC50 [1] | Ki [2] | CC50 [3]
CCc1nc2nc(CSc3nnc(NC(=O)COc4ccc(C)c(C)c4)s3)cc(O)n2n1 | 53.5 µM | 2.55 µM | > 50 µM
Cc1ccc(OCCn2cc(/C=C/C(=O)O)c3ccccc32)cc1 | 43 µM | 13 µM | > 50 µM
O=C(O)c1cccc(N/N=C2\C(=O)N(c3nc(-c4ccccc4)cs3)N=C2c2ccccc2)c1 | 4.64 µM | 0.2 µM | 53 µM
COc1ccc(C(=O)Oc2ccc(Br)cc2/C=N/N=C2\NC(=O)[C@H](CC(=O)O)S2)cc1 | 41.1 µM | 1.6 µM | 208 µM
O=C(CN1C(=O)N/C(=C/c2ccccc2OCc2ccc(C(=O)O)cc2)C1=O)Nc1ccccc1 | 34 µM | 7.1 µM | > 50 µM
Cc1cccc(NC(=O)CN2C(=O)N/C(=C/c3cccn3-c3cccc(C(=O)O)c3)C2=O)c1 | 160 µM | 4.45 µM | > 100 µM
Cc1ccc(-c2nc(SCC(=O)Nc3ccc(C)c(C)c3)n3[nH]c(=O)cc3n2)cc1 | 13.3 µM | 0.46 µM | > 50 µM
